Holding throughout (format): biochemical
For one assay, the target named is T1, Aurora A (Homo sapiens, UniProt O14965).
T1 construct: gene AURKA; full length in pET21d, 6xHis tag (Aurora A-6xHis), E. coli, Ni-NTA purified
T1 sequence (O14965 1-403): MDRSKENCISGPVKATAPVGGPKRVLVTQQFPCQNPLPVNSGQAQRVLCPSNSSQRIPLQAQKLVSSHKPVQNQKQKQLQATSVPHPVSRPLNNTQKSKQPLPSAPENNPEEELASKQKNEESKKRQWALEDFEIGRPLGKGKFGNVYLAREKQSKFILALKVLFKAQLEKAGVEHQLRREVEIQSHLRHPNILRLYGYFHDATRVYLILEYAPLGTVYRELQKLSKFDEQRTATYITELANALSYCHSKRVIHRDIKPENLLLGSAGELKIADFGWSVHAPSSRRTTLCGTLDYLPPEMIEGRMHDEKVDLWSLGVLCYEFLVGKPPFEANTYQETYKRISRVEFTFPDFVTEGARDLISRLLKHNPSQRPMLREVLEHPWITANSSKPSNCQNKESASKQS
Put plainly: in vitro kinase assay (Z'LYTE Ser/Thr […] peptide; Easylite luminescence ATP detection).

The target in a further assay is T2, FGFR.
T2 construct: gene FGFR1; selectivity panel
Put plainly: Z'LYTE kinase selectivity assay. An excerpt: Z'LYTE kinase selectivity assay on FGFR

A further assay addresses T3, IGF1R (Homo sapiens, UniProt P08069).
T3 construct: selectivity panel
Put plainly: Z'LYTE kinase selectivity assay. The text has this:
Z'LYTE kinase selectivity assay on IGF1R

In another assay the target is T4, KDR (Homo sapiens, UniProt P35968).
T4 construct: selectivity panel
Put plainly: Z'LYTE kinase selectivity assay. The text has this:
Z'LYTE kinase selectivity assay on KDR

A further assay concerns the target T5, EGFR (Homo sapiens, UniProt P00533).
T5 construct: selectivity panel
Put plainly: Z'LYTE kinase selectivity assay. An excerpt:
Z'LYTE kinase selectivity assay on EGFR

In another assay the target is T6, Aurora B (Homo sapiens, UniProt Q96GD4).
T6 construct: gene AURKB; selectivity panel
Put plainly: Z'LYTE kinase selectivity assay. The text has this: Z'LYTE kinase selectivity assay on Aurora B

Molecules are shown by their SMILES. Where two headings read alike, the source gives them in different places.

T4 sequence (P35968 20-1356): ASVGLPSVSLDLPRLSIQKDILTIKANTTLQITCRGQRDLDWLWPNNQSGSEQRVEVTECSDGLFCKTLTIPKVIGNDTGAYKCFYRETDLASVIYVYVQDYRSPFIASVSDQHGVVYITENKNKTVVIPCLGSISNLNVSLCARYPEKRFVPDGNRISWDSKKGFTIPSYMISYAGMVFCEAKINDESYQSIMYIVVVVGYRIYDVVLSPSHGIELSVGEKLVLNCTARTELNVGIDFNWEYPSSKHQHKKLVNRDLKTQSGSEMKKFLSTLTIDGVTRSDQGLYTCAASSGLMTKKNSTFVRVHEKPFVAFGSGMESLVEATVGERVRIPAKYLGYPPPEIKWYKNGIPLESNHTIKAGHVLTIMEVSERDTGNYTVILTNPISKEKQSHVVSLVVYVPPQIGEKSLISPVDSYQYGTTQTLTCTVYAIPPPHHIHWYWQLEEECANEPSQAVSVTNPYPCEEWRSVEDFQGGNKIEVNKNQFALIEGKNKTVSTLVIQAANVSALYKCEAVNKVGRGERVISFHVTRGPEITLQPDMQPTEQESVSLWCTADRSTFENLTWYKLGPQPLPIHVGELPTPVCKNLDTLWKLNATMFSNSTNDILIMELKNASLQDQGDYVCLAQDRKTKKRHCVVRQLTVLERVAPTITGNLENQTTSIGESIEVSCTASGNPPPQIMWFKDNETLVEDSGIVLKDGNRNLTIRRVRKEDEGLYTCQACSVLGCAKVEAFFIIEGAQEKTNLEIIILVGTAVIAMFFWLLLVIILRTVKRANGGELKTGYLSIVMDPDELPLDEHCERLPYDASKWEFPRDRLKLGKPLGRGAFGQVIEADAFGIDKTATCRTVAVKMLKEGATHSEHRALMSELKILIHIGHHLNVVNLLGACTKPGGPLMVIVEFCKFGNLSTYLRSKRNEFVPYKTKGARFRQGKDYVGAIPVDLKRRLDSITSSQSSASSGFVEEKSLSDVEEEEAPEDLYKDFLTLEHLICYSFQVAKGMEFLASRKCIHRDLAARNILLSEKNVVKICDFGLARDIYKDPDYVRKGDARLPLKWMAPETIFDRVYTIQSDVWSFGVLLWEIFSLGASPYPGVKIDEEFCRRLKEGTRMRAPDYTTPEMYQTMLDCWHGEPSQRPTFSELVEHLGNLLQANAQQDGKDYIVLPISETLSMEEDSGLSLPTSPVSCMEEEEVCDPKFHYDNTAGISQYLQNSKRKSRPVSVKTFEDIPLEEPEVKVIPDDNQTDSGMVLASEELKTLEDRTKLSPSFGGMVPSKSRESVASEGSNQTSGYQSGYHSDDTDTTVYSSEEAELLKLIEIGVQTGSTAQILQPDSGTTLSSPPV
T5 sequence (P00533 25-1210): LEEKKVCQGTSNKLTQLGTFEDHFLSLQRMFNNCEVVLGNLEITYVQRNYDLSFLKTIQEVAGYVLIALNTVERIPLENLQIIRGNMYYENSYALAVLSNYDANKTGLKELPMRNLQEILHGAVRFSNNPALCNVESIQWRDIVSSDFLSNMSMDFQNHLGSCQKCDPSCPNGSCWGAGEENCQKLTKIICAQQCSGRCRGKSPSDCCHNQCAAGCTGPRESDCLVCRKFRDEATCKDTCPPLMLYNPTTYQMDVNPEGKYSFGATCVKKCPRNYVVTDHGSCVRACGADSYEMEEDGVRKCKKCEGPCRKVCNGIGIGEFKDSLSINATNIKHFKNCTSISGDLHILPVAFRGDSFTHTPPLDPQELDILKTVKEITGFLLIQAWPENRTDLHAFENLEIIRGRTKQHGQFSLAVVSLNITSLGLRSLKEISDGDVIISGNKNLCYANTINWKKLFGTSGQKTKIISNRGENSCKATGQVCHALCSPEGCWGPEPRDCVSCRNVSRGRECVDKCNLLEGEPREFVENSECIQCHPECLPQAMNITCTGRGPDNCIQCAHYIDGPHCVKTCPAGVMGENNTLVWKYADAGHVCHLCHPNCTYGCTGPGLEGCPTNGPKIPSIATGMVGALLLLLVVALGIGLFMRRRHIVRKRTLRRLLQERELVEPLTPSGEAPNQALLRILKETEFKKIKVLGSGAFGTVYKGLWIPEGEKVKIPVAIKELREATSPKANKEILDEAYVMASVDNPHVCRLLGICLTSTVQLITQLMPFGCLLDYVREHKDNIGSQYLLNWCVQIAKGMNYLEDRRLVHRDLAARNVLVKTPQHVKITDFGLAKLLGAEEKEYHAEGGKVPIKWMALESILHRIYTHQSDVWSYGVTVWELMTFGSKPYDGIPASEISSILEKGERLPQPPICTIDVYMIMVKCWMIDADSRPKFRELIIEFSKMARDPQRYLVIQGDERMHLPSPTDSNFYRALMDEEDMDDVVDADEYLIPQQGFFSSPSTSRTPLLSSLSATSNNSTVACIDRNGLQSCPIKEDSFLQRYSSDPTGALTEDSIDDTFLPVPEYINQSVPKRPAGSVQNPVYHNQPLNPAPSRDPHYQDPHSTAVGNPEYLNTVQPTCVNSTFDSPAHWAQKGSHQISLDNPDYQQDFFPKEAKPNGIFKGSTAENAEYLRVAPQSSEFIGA
T6 sequence (Q96GD4 whole entry): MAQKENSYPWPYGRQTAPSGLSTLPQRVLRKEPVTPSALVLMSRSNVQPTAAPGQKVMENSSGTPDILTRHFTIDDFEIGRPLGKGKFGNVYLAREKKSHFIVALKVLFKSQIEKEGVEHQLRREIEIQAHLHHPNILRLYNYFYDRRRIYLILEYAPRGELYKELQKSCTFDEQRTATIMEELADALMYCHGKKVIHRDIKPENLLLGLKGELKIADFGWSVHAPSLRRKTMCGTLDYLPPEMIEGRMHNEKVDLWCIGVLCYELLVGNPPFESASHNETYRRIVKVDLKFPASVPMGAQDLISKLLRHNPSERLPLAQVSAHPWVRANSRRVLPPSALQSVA
T3 sequence (P08069 31-736): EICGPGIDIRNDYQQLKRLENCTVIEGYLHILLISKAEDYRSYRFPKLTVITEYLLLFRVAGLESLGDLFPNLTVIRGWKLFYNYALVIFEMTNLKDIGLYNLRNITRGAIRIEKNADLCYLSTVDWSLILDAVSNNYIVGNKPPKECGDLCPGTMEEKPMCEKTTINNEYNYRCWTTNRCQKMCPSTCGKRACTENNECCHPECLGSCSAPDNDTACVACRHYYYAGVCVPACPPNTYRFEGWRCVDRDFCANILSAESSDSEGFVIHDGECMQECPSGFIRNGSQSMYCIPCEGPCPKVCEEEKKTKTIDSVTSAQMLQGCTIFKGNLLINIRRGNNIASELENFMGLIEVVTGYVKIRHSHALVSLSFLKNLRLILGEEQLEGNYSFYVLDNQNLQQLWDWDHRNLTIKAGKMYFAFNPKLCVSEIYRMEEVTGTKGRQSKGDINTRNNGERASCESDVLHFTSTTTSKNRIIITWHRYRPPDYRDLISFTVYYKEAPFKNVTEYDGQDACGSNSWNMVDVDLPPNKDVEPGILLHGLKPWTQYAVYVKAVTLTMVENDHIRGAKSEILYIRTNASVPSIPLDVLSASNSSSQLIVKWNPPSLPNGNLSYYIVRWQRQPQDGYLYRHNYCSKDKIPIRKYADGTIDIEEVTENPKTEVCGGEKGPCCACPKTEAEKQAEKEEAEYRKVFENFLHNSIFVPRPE
T3 sequence (P08069 741-1367): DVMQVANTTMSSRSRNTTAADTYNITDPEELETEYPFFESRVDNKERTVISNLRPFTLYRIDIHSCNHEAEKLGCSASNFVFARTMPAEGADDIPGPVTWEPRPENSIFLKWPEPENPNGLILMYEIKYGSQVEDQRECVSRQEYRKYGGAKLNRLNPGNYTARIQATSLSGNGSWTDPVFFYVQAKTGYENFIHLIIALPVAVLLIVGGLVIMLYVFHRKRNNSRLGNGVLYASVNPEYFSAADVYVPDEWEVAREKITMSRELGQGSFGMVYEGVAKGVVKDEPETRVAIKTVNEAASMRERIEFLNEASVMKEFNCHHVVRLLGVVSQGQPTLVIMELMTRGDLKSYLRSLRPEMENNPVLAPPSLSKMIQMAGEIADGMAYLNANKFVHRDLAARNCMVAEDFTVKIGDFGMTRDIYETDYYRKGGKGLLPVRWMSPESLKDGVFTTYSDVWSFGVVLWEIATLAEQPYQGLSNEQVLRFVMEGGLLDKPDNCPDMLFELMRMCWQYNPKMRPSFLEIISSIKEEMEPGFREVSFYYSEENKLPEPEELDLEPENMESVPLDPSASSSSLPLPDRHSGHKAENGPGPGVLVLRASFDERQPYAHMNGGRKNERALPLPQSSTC

Take `O=C1Nc2ccccc2C1=Cc1cc(O)ccc1O` [Tripolin A, 3-(2,5-Dihydroxy-benzylidene)-1,3-dihydro-indol-1-one]: the IC50 amounted to 1.5 µM at Aurora A (read-out: Tripolin A); 33.4 µM at FGFR (read-out: Tripolin A); 14.9 µM on IGF1R (read-out: Tripolin A); 17.9 µM on KDR (read-out: Tripolin A); 11 µM at EGFR (read-out: Tripolin A); 7 µM on Aurora B (read-out: Tripolin A).

With `O=C1Nc2ccccc2C1=Cc1cnc[nH]1` [Tripolin B, 3-(3H-Imidazol-4-ylmethylene)-1,3-dihydro-indol-2-one], the IC50 was 2.5 µM at Aurora A (read-out: Tripolin B); 38 µM at FGFR (read-out: Tripolin B); 13.2 µM at IGF1R (read-out: Tripolin B); 6.5 µM at KDR (read-out: Tripolin B); 71.7 µM at EGFR (read-out: Tripolin B); 6 µM at Aurora B (read-out: Tripolin B).

Source of the values: PMC3596387, “Tripolin A, a Novel Small-Molecule Inhibitor of Aurora A Kinase, Reveals New Regulation of HURP's Distribution on Microtubules” (PLoS ONE, 2013).
